Experimental data taken from patent US20250230193A1, “CYCLIC COMPOUND HAVING SELECTIVE KRAS INHIBITORY EFFECT ON HRAS AND NRAS” (CHUGAI SEIYAKU KABUSHIKI KAISHA, priority 2022, published 2025).
*1 amine or outer side, *2 acyl side, *3 side chain or, on linkers, in order; H or OH if unused. Where a SMILES comes first, the peptide text is derived from it. Bridges are numbered along the chain shown (N, C = ends). [ ]: non-standard residue; d: D form. The star is where a group is joined. hPhe(3-Cl-4-CF3) = N[C@@H](CCc1ccc(C(F)(F)F)c(Cl)c1)C(=O)O; X32 = COCCN([C@@H](Cc1ccc(C(F)(F)F)cc1)C(=O)[*:2])[*:1]; NPrPhe(4-CF3) = CCCN[C@@H](Cc1ccc(C(F)(F)F)cc1)C(=O)O; NEtPhe(4-F) = CCN[C@@H](Cc1ccc(F)cc1)C(=O)O; NMeGly(cPent) = CN[C@H](C(=O)O)C1CCCC1; NEtPhe = CCN[C@@H](Cc1ccccc1)C(=O)O; NMeD = CN[C@@H](CC(=O)O)C(=O)O; NMeL = CN[C@@H](CC(C)C)C(=O)O; Morpholide = C1CN(*)CCO1; NMeA = CN[C@@H](C)C(=O)O; Ac5c = NC1(C(=O)O)CCCC1; Aze = O=C(O)[C@@H]1CCN1; Sar = CNCC(=O)O

How the values were obtained:
[1] = biological target: GDP-bound HRAS wild-type protein (Homo sapiens, UniProt P01112); experiment: Binding to HRAS by surface plasmon resonance (SPR), Single Cycle Kinetics
Chain of GDP-bound HRAS wild-type protein (P01112 whole entry): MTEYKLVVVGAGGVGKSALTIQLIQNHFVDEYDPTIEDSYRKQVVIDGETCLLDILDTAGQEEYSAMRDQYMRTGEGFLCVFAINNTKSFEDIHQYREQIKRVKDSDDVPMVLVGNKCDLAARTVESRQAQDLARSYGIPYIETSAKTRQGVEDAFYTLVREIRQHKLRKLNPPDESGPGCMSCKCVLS

[2] = biological target: GDP-bound NRAS wild-type protein (Homo sapiens, UniProt P01111); experiment: Binding to NRAS by surface plasmon resonance (SPR), Single Cycle Kinetics
Chain of GDP-bound NRAS wild-type protein (P01111 whole entry): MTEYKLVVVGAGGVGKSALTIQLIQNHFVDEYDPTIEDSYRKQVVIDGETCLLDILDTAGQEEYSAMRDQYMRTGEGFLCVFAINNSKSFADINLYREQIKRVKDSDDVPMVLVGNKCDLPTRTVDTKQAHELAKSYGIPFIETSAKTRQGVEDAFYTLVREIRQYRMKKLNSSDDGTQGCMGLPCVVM

[3] = KD ratio, GDP-bound HRAS wild-type vs GDP-bound KRAS wild-type, SPR
[4] = KD ratio, GDP-bound NRAS wild-type vs GDP-bound KRAS wild-type, SPR

With `CCC[C@H]1C(=O)N[C@@H]([C@@H](C)CC)C(=O)N(C)CC(=O)N(C)[C@H]2C/C=C\CCN(C2=O)[C@@H](Cc2ccc(C)cc2)C(=O)N(C)CC(=O)N[C@@H](CCc2cc(Cl)c3c(ccn3C)c2)C(=O)N2C[C@H](OCC)C[C@H]2C(=O)NC2(CC(C)(C)C2)C(=O)N(C)[C@@H](C(CC)CC)C(=O)N(C)[C@H](C(=O)N(C)C)CC(=O)N1C` [PP2898] the “HRAS/KRAS (ratio of KD value with respect to GDP-bound HRAS wild-type protein to KD value with respect to KRAS)” value ([1]; class symbols) was “A (a compound having 10 or more and less than 20 is denoted as A)” and the “NRAS/KRAS (ratio of KD value with respect to GDP-bound NRAS wild-type protein to KD value with respect to KRAS)” value ([2]; class symbols) was “A (a compound having 10 or more and less than 20 is denoted as A)”.
In the case of `CC[C@H](C)[C@@H]1NC(=O)[C@H](CC(C)C)N(C)C(=O)C[C@@H](C(=O)N2CCOCC2)N(C)C(=O)[C@H](C2CCCC2)N(C)C(=O)C2(CCCC2)NC(=O)[C@@H]2CCCN2C(=O)[C@H](CCc2ccc(C(F)(F)F)c(Cl)c2)NC(=O)CN(C)C(=O)[C@H](Cc2ccccc2)N(CC)C(=O)[C@@H]2CCN2C(=O)[C@H](C)N(C)C1=O` [PP0215] ([NMeL]I[NMeA][Aze][NEtPhe][Sar][hPhe(3-Cl-4-CF3)]P[Ac5c][NMeGly(cPent)][NMeD]-Morpholide; lactam N-11), the “HRAS/KRAS (ratio of KD for GDP-bound HRAS wild-type to KD for KRAS)” value ([1]; SPR) is reported as “C (A compound having a KD ratio of 0.1 or more and less than 3 is denoted as C)” and the “NRAS/KRAS (ratio of KD for GDP-bound NRAS wild-type to KD for KRAS)” value ([2]; SPR) is reported as “C (A compound having a KD ratio of 0.1 or more and less than 3 is denoted as C)”.
For `CCO[C@@H]1C[C@H]2C(=O)NC3(CCC3)C(=O)N(C)[C@@H](C3CCCC3)C(=O)N(C)[C@H](C(=O)N(C)CC)CC(=O)N(C)[C@@H](CC(C)C)C(=O)N[C@@H]([C@@H](C)CC)C(=O)N(C)CC(=O)N(C)[C@H]3C/C=C\CCN(C3=O)[C@@H](Cc3ccc(C(F)(F)F)cc3)C(=O)N(C)CC(=O)N[C@@H](CCc3ccc(C(F)(F)F)c(Cl)c3)C(=O)N2C1` [PP2847], the “HRAS/KRAS (ratio of KD value with respect to GDP-bound HRAS wild-type protein to KD value with respect to KRAS)” value ([1]; class symbols) was “A (a compound having 10 or more and less than 20 is denoted as A)” and the “NRAS/KRAS (ratio of KD value with respect to GDP-bound NRAS wild-type protein to KD value with respect to KRAS)” value ([2]; class symbols) was “A (a compound having 10 or more and less than 20 is denoted as A)”.
`CCO[C@@H]1C[C@H]2C(=O)NC3(CCCC3)C(=O)N(C)[C@@H](C3CCCC3)C(=O)N(C)[C@H](C(=O)N3CCOCC3)CC(=O)N(C)[C@@H](CC(C)C)C(=O)N[C@@H]([C@@H](C)CC)C(=O)N(C)CC(=O)N(C)[C@H]3CC(C)=CCN(C3=O)[C@@H](Cc3ccc(C(F)(F)F)cc3)C(=O)N(C)CC(=O)N[C@@H](CCc3cc(F)c(C(F)(F)F)c(F)c3)C(=O)N2C1` [PP1038] was tested, and the “HRAS/KRAS (ratio of KD value with respect to HRAS to KD value with respect to KRAS)” value [1, 3] was “C (A compound having a KD ratio of 0.1 or more and less than 3 is denoted as C)” and the “NRAS/KRAS (ratio of KD value with respect to NRAS to KD value with respect to KRAS)” value [2, 4] was “C (A compound having a KD ratio of 0.1 or more and less than 3 is denoted as C)”.
`CC[C@H](C)[C@@H]1NC(=O)[C@H](CC(C)C)N(C)C(=O)C[C@@H](C(=O)N2CCOCC2)NC(=O)[C@H](C2CCCC2)N(C)C(=O)C2(CCCC2)NC(=O)[C@@H]2CCCN2C(=O)[C@H](CCc2cc(F)c(C(F)(F)F)c(F)c2)NC(=O)CN(C)C(=O)[C@H](Cc2ccc(C(F)(F)F)cc2)N2CCCC[C@@H](C2=O)N(C)C(=O)CN(C)C1=O` [PP0541] was tested, and the “HRAS/KRAS (ratio of KD value with respect to GDP-bound HRAS wild-type protein to KD value with respect to KRAS)” value ([1]; SPR) was “B (a compound having 3 or more and less than 10 is denoted as B)” and the “NRAS/KRAS (ratio of KD value with respect to GDP-bound NRAS wild-type protein to KD value with respect to KRAS)” value ([2]; SPR) was “B (a compound having 3 or more and less than 10 is denoted as B)”.
For `CC[C@H](C)[C@@H]1NC(=O)[C@H](CC(C)C)N(C)C(=O)C[C@@H](C(=O)N2CCOCC2)N(C)C(=O)[C@H](C2CCCC2)N(C)C(=O)C2(CCCC2)NC(=O)[C@@H]2CCCN2C(=O)[C@H](CCc2ccc(C(F)(F)F)c(Cl)c2)NC(=O)CN(C)C(=O)[C@H](Cc2ccc(C(F)(F)F)cc2)N(CCOC)C(=O)CN(C)C(=O)CN(C)C1=O` [PP0132] ([NMeL]I[Sar][Sar][X32][Sar][hPhe(3-Cl-4-CF3)]P[Ac5c][NMeGly(cPent)][NMeD]-Morpholide; lactam N-11), the “HRAS/KRAS (ratio of KD for GDP-bound HRAS wild-type to KD for KRAS)” value ([1]; SPR) was “C (A compound having a KD ratio of 0.1 or more and less than 3 is denoted as C)” and the “NRAS/KRAS (ratio of KD for GDP-bound NRAS wild-type to KD for KRAS)” value ([2]; SPR) was “C (A compound having a KD ratio of 0.1 or more and less than 3 is denoted as C)”.
`CC[C@H](C)[C@@H]1NC(=O)[C@H](CC(C)C)N(C)C(=O)C[C@@H](C(=O)N2CCOCC2)N(C)C(=O)[C@H](C2CCCC2)N(C)C(=O)C2(CCCC2)NC(=O)[C@@H]2CCCN2C(=O)[C@H](CCc2ccc(C(F)(F)F)c(Cl)c2)NC(=O)CN(C)C(=O)[C@H](Cc2ccc(F)cc2)N(CC)C(=O)[C@@H]2CCN2C(=O)[C@H](C)N(C)C1=O` [PP0218] ([NMeL]I[NMeA][Aze][NEtPhe(4-F)][Sar][hPhe(3-Cl-4-CF3)]P[Ac5c][NMeGly(cPent)][NMeD]-Morpholide; lactam N-11) was tested, and the “HRAS/KRAS (ratio of KD for GDP-bound HRAS wild-type to KD for KRAS)” value ([1]; SPR) was “C (A compound having a KD ratio of 0.1 or more and less than 3 is denoted as C)” and the “NRAS/KRAS (ratio of KD for GDP-bound NRAS wild-type to KD for KRAS)” value ([2]; SPR) was “C (A compound having a KD ratio of 0.1 or more and less than 3 is denoted as C)”.
`C=CCCC[C@H]1C(=O)N[C@@H]([C@@H](C)CC)C(=O)N(C)CC(=O)N(C)[C@H]2CCCCN(C2=O)[C@@H](Cc2ccc(C(F)(F)F)cc2)C(=O)N(C)CC(=O)N[C@@H](CCc2cc(F)c(C(F)(F)F)c(F)c2)C(=O)N2C[C@H](OCC)C[C@H]2C(=O)N[C@](C)(CC=C)C(=O)N(C)[C@@H](C2CCCC2)C(=O)N(C)[C@H](C(=O)N2CCOCC2)CC(=O)N1C` [PP0876] was tested, and the “HRAS/KRAS (ratio of KD value with respect to HRAS to KD value with respect to KRAS)” value [1, 3] was “C (A compound having a KD ratio of 0.1 or more and less than 3 is denoted as C)” and the “NRAS/KRAS (ratio of KD value with respect to NRAS to KD value with respect to KRAS)” value [2, 4] was “C (A compound having a KD ratio of 0.1 or more and less than 3 is denoted as C)”.
For `CCC[C@H]1C(=O)N[C@@H]([C@@H](C)CC)C(=O)N2CCC[C@H]2C(=O)N(C)[C@H]2C/C=C\CCN(C2=O)[C@@H](CC2CCCCC2)C(=O)N(C)CC(=O)N[C@@H](CCc2ccc(C(F)(F)F)c(OC)c2)C(=O)N2C[C@H](OCC)C[C@H]2C(=O)N(C)C2(CCC2)C(=O)N(C)[C@@H](C2CCCC2)C(=O)N(C)[C@H](C(=O)N(C)C)CC(=O)N1C` [PP2344], the “HRAS/KRAS (ratio of KD value with respect to HRAS to KD value with respect to KRAS)” value ([1]; SPR, GDP-bound HRAS wild-type vs GDP-bound KRAS wild-type) was “A (a compound having 10 or more and less than 20 is denoted as A)” and the “NRAS/KRAS (ratio of KD value with respect to NRAS to KD value with respect to KRAS)” value ([2]; SPR, GDP-bound NRAS wild-type vs GDP-bound KRAS wild-type) was “A (a compound having 10 or more and less than 20 is denoted as A)”.
In the case of `CC[C@H](C)[C@@H]1NC(=O)[C@H](CCOC)N(C)C(=O)C[C@@H](C(=O)N(C)CC)N(C)C(=O)[C@H](C2CCCC2)N(C)C(=O)C2(CC(C)(C)C2)NC(=O)[C@@H]2C[C@H](C)CN2C(=O)[C@H](CCc2ccc(C(F)(F)F)c(OC)c2)NC(=O)CN(C)C(=O)[C@H](Cc2ccc(C(F)(F)F)cc2)N2CC/C=C\C[C@@H](C2=O)N(C)C(=O)CN(C)C1=O` [PP1999], the “HRAS/KRAS (ratio of KD value for HRAS to KD value for KRAS)” value [1, 3] is reported as “B (a compound having 3 or more and less than 10 is denoted as B)” and the “NRAS/KRAS (ratio of KD value for NRAS to KD value for KRAS)” value [2, 4] is reported as “A (a compound having 10 or more and less than 20 is denoted as A)”.
`CCCN1C(=O)[C@@H]2CCN2C(=O)[C@H](C)N(C)C(=O)[C@H]([C@@H](C)CC)NC(=O)[C@H](CC(C)C)NC(=O)C[C@@H](C(=O)N2CCOCC2)N(C)C(=O)[C@H](C2CCCC2)N(C)C(=O)C2(CCCC2)NC(=O)[C@@H]2CCCN2C(=O)[C@H](CCc2ccc(C(F)(F)F)c(Cl)c2)NC(=O)CN(C)C(=O)[C@@H]1Cc1ccc(C(F)(F)F)cc1` [PP0154] (LI[NMeA][Aze][NPrPhe(4-CF3)][Sar][hPhe(3-Cl-4-CF3)]P[Ac5c][NMeGly(cPent)][NMeD]-Morpholide; lactam N-11) was tested, and the “HRAS/KRAS (ratio of KD for GDP-bound HRAS wild-type to KD for KRAS)” value ([1]; SPR) was “B (a compound having 3 or more and less than 10 is denoted as B)” and the “NRAS/KRAS (ratio of KD for GDP-bound NRAS wild-type to KD for KRAS)” value ([2]; SPR) was “C (A compound having a KD ratio of 0.1 or more and less than 3 is denoted as C)”.
